One assay has as its system Caspase. The experiment in a line: One hour kinetic assay detection of Caspase using U-937 cells. Particulars: above the 50% DMSO concentration; due to non-specific signal from uninduced cell controls. In kind it is cell-based. On the procedure: (§1) To initiate such assays, 25 μl of Caspase CellProbe Reagent™ (Beckman Coulter) was added to a suspension of 1×10^5 U-937 cells in 110 μl of culture medium in a 96-well microtiter plate. Cells were incubated for one hour, and had been either uninduced or induced by prior incubation in the presence of 2.5 μM Camptothecin. The final concentration of the Caspase CellProbe Reagent™ was 30 μM.
The results shown in FIG. 4 is of kinetic signal from twenty fluorescence readings of the one hour assay. In FIG. 4, lines containing a diamond (♦) denote unmixed samples; lines containing boxes (▪) and appearing as thick lines denote mixed samples.

Assay [1] has as its system HeLa cells. The experiment in a line: CellProbe assay in HeLa cells with betaine (Example 5). In kind it is cell-based. Particulars: betaine 2.0-2.4 M; HeLa 7.5×10^3/well, 25 μM CellProbe substrate; particularly if unmixed. On the procedure: The enhanced detection sensitivity of the assays of the present invention resulting from the use of Betaine (at 2.0, 2.1, 2.2, 2.3, 2.4 M) is shown in FIG. 8. For such experiments, HeLa cells are seeded overnight at 7.5×10^3/well and provided with CellProbe substrate (25 μM final concentration). […] Results of similar assays conducted with 35% DMSO are shown for comparison.

Assay [2] deals with HeLa cells. Kind of assay: CellProbe assay in HeLa cells with betaine (Example 4). In kind it is cell-based. The note with it: HeLa 1.5×10^4/well, 30 μM CellProbe substrate; particularly if unmixed. On the procedure:
For such experiments, HeLa cells are seeded overnight at 1.5×10^4/well and provided with 30 μM CellProbe substrate (final concentration).

The next assay concerns aminopeptidase. The note with it: concentrations of approximately 10 mM; cited from earlier work.
In assay [3] the test system is Caspase 6. Kind of assay: Caspase 6 CellProbe assay in HeLa cells (Example 6). It is filed as cell-based. The note with it: HeLa 1.5×10^4 cells/well, 30 μM CellProbe, 1 hour. How it is done: To initiate such assays, Caspase CellProbe Reagent™ (Beckman Coulter) is added to a suspension of 1.5×10^4 HeLa cells/well in a 96-well microtiter plate. The final concentration of the Caspase CellProbe Reagent™ was 30 μM. Reaction is for 1 hour and is as described in Example 1.

Assay [4] concerns Caspase 6. The experiment in a line: Caspase 6 CellProbe assay for apoptosis using HeLa cells (Example 2). It is filed as cell-based. On the procedure:
To initiate 110 such assays, Caspase CellProbe Reagent™ (Beckman Coulter) is added to a suspension of 1.5×10^4 HeLa cells/well in a 96-well microtiter plate. The final concentration of the Caspase CellProbe Reagent™ was 30 μM. Reaction is for 1 hour.
In FIG. 5, and in the examples below, the Fluorescence Ratio is defined as: Fluorescence Ratio=Induced Fluorescence/Uninduced Fluorescence where the Induced Fluorescence is the difference between the 1 Hour Value and the Start of Assay Value, and the Uninduced Fluorescence is the difference between the 1 Hour Value and the Uninduced Start Value. In FIG. 5, data are plotted as a function of potassium glutamate or DMSO concentration. The dark columns indicate results obtained upon mixing the samples, while the light columns indicate results obtained when the samples were not mixed after the addition of glutamate.

In another assay the test system is Caspase 3. Kind of assay: Caspase 3 CellProbe assay with U-937 suspension cells. In kind it is cell-based. How it is done: as §1
(§2) In the Figures, the 5 series of columns reflect results obtained with no glycerol, 20% glycerol, 30% glycerol, 40% glycerol and 50% glycerol. The individual columns (left to right) within each data series reflect results for: unmixed sample—induced; unmixed sample—uninduced; mixed sample—induced; and mixed sample—uninduced.

In assay [5] the test system is Caspase 6. The experiment in a line: Caspase 6 CellProbe assay with U-937 suspension cells. In kind it is cell-based. On the procedure:
as §1, §2

Another assay deals with Caspase 1. The experiment in a line: Caspase 1 CellProbe assay with U-937 suspension cells. In kind it is cell-based. How it is done: as §1, §2
Where [6] appears, read: various optimal glycerol concentrations (20-50%), U-937 cells, 30 μM CellProbe, 1 hour.

Turning to `C[S+](C)[O-]` [DMSO, dimethyl sulfoxide], in the assay on Caspase, the “signal ratio (induced/uninduced)” value is “signal ratio decrease”.
For the molecule `C[N+](C)(C)CC(=O)O` [betaine], the assay sensitivity entry in the assay with HeLa cells [1] and in the assay on HeLa cells [2] was “improved assay sensitivity” each time.
Take `[Ca+2].[Cl-].[Cl-]` [calcium chloride]: the “effect on enzyme reaction with the assay compound” value with aminopeptidase is given as “inhibitory”.
With `OCCO` [ethylene glycol], the “assay performance (detection sensitivity)” value with Caspase 6 [3] is on record as “improved assay performance”.
Regarding `N[C@@H](CCC(=O)[O-])C(=O)[O-].[K+].[K+]` [glutamate, potassium glutamate], the “detection of Caspase 6 activity” value in the assay on Caspase 6 [4] (glutamate 1.5 M, 1.7 M, 1.8 M, 2.0 M, HeLa cells, 1 hour) was “dramatic improvement”. In addition, the assay sensitivity result in the assay on Caspase 6 [4] (inclusion of glutamate, particularly if unmixed) is reported as “improved assay sensitivity”.
As for `CCOC(=O)CC[C@H](N)C(=O)OCC` [glutamic acid diethyl ester], the detection sensitivity result in the assay with Caspase 6 [3] was “did not enhance detection sensitivity”.
In the case of `OCC(O)CO` [glycerol], the “relative signal, Caspase 3” value in the assay on Caspase 3 (raising the glycerol concentration from 0 to 50%, greater magnitude when unmixed) is recorded as “significant relative signal increase”. The “detection of Caspase 3 activity” value in the assay with Caspase 3 (setting [6]) is “dramatic improvement”. The “effect on Caspase 6 assay” value in the assay on Caspase 6 [5] (added unmixed glycerol ~50%) is listed as “deleterious effect”. In addition, the “detection of Caspase 6 activity” value with Caspase 6 [5] (setting [6]) is “dramatic improvement”. Moreover, the “effect on Caspase 1 assay” value in the assay with Caspase 1 (added unmixed glycerol ~40%) was “deleterious effect”. For the same molecule, the “detection of Caspase 1 activity” value in the assay on Caspase 1 (setting [6]) was “dramatic improvement”.
In the case of `O=C(O)[C@@H]1CCCN1` [proline], the detection sensitivity entry in the assay on Caspase 6 [3] is given as “did not enhance detection sensitivity”.
As for `O=C[C@H](O)[C@H](O)[C@H](O)CO` [ribose], the “assay performance (detection sensitivity)” value in the assay with Caspase 6 [3] was “improved assay performance”.
The same measure, in the same setting: the entry for `OC[C@@H](O)[C@H](O)CO` [threitol] is “improved assay performance”; for `OC[C@H]1O[C@H](O[C@H]2O[C@H](CO)[C@@H](O)[C@H](O)[C@H]2O)[C@H](O)[C@@H](O)[C@@H]1O` [trehalose] it is “improved assay performance”; for `C[N+](C)(C)[O-]` [trimethylamine N-oxide] it is “improved assay performance”.

The record behind these values is patent publication US7026111B2, “Methods and reagents for improved cell-based assays” (Beckman Coulter, Inc., priority 2001, dated 2006).
